Results as given in ChEMBL document CHEMBL3271952, “Synthesis and pharmacological properties of the N-terminal decapeptide of the vasoactive intestinal peptide (VIP)” (J Med Chem, 1977).
Activity calls are given as the source filed them. The rule behind the calls is not given here. Peptide text beside a SMILES is read from it.

Legend:
Canis familiaris = assay: Vasodilatory activity in anesthetized dog assessed as effect on blood flow; type: functional, organism-based; details: Canis lupus familiaris
Stomach = assay: Vasodilatory activity in rat stomach smooth muscle assessed as muscle relaxation; type: functional, tissue-based
Cavia porcellus = species: Cavia porcellus; assay: Vasodilatory activity in guinea pig trachea assessed as muscle relaxation; type: functional, tissue-based

Row | Compound | Activity (Canis familiaris) | Activity (Stomach) | Activity (Cavia porcellus)
1 | H-RKQMAVKKYLNSILN-NH2 | inactive | – | –
2 | H-KQMAVKKYLNSILN-NH2 | Active | – | –
3 | H-AVKKYLNSILN-NH2 | Active | Active | Active
4 | COC(=O)[C@H](Cc1ccc(O)cc1)NC(=O)[C@H](CC(N)=O)NC(=O)[C@H](CC(=O)O)NC(=O)[C@@H](NC(=O)[C@H](Cc1ccccc1)NC(=O)[C@@H](NC(=O)[C@H](C)NC(=O)[C@H](CC(=O)O)NC(=O)[C@H](CO)NC(=O)[C@@H](N)Cc1cnc[nH]1)C(C)C)[C@@H](C)O (H-HSDAVFTDNY-OMe) | – | Active | Active
